How the values were obtained:
human ACSS2 = biological target: T1, human ACSS2 (Homo sapiens, UniProt Q9NR19); assay: ACSS2 enzyme assay (acetyl-CoA formation, LC-MS/MS); format: biochemical; settings: cytosolic fraction of BT474 cells as ACSS2 source; 100 μM acetate, CoA and ATP; 2 h at 25° C.; read-out: Enzyme Activity (IC50 range)
T1 construct: The cytosolic fraction of BT474 cells was used as a source of the ACSS2 enzyme; endogenous in cells; host or cells: BT474 cells (cytosolic fraction)
Experimental: Novel compounds were screened in a human ACSS2 enzyme assay. Briefly, the ACSS2 enzyme reaction was monitored by directly measuring acetyl-CoA formation. The cytosolic fraction of BT474 cells was used as a source of the ACSS2 enzyme. A short protocol for this assay is provided below.
Preparation of Cytosolic Fraction from BT474 Cells
9×10^6 cells were harvested by trypsinization followed by centrifugation. The cell pellet was washed with PBS and dissolved in 500 μl STM buffer (50 mM Tris-HCl pH7.4, 250 mM sucrose, 5 mM MgCl2 & protease-phosphatase inhibitor cocktail) and homogenized at 600-1000 rpm for 1 min. on ice followed by incubation for 30 min. with intermittent vortexing. Supernatant was collected by centrifugation at 800 g for 15 min. at 4° C. Cytosolic fraction was prepared by further centrifugation of the supernatant at 12000 g for 15 min. at 4° C. Total protein content of the cytosolic fraction was estimated & diluted to 1 mg/ml concentration in storage buffer (25 mM Tris-HCl pH7.4, 1 mM MgCl2, 1 mM DTT & 10% glycerol) and stored at −80° C. for further use.
100 ng of cytosolic fraction in buffer composed of 25 mM Tris-HCl pH7.4 1 mM MgCl2, 1 mM DTT & 0.05% Tween20 was preincubated with desired concentrations of novel compounds for 5 min. maintaining 1% DMSO. Reaction was started with addition of substrate mix (100 μM of acetate, CoA and ATP) and incubated for 2 h at 25° C. with constant shaking at 500 rpm. Post incubation the reaction was terminated by addition of 10% TCA followed by 5 fold dilution in water. The reaction mixture was centrifuged at 800 g for 10 min. at RT and acetyl-CoA detected in supernatant by LC-MS/MS (QTrap5500 ABSCIEX).

[1] = system: [14C] acetate incorporation in macromolecules, BT474 cells; assay: Cell based [14C] acetate incorporation assay; settings: Homo sapiens, BT-474, 3 h at 37° C., read-out: Cellular Activity (IC50 range)
Experimental: Cell Based [^14C] Acetate Incorporation Assay
In the cellular assay, ACSS2 inhibitors were screened against [^14C] acetate incorporation in macromolecules. 4×10^4 BT474 cells were plated in 96 well plates in growth media composed of DMEM & 10% FBS and incubated overnight in a 37° C., 5% CO2 incubator. The following day the cells were washed in HBSS and the assay was performed in 100 μl of HBSS. 50 μl of 4× compound in 4% DMSO was added to the cells and preincubated for 10 min. at 37° C. 50 μl of acetate solution (0.1 μCi ^14C acetate+10 μM ^12C acetate) was added to each well of the plate and incubated for 3 h in a 37° C., 5% CO2 incubator. Following incubation, cells were harvested with water on polyethylene imine (PEI) presoaked GF/C filtermat, air dried and radioactive count were recorded in Trilux micro beta Liquid Scintillation Counter (PerkinElmer).

T1 sequence (Q9NR19 whole entry): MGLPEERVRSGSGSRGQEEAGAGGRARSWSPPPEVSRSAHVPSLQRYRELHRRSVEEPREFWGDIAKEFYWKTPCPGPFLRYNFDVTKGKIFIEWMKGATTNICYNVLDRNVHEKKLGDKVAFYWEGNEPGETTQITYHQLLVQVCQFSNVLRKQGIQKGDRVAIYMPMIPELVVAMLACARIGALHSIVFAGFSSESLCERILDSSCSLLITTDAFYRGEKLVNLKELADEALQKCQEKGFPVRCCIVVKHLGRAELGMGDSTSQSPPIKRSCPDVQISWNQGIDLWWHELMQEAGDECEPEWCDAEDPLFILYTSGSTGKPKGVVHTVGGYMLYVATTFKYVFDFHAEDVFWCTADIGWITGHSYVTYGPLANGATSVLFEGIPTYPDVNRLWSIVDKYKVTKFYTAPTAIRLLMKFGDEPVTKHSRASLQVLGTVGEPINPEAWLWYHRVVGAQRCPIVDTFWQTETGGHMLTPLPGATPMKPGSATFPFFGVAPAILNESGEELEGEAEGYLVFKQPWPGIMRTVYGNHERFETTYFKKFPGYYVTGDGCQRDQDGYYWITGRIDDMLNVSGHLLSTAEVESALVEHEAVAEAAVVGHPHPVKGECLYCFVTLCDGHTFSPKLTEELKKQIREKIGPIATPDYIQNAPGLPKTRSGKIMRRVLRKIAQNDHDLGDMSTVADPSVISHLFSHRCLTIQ

COCCNC(=O)Nc1ccc2nc(C)c(-c3ccccc3F)cc2c1 [Example 116, 1-(3-(2-fluorophenyl)-2-methylquinolin-6-yl)-3-(2-methoxyethyl) urea]
IC50 (human ACSS2): ≤ 1000 nM | IC50 [1]: < 100 nM

CCC(O)CNC(=O)Nc1ccc2nc(-c3ccccc3)c(-c3ccccc3)c(-c3ncco3)c2c1 (stereo not shown) [Example 97, 1-(2-hydroxybutyl)-3-(4-(oxazol-2-yl)-2,3-diphenylquinolin-6-yl)urea]
IC50 (human ACSS2): < 100 nM | IC50 [1]: < 100 nM

CCCCNC(=O)Nc1ccc2nc(-c3ccccc3)c(-c3ccccc3)cc2c1-c1cccnc1O [Example 5, 1-butyl-3-(5-(2-hydroxypyridin-3-yl)-2,3-diphenylquinolin-6-yl)urea]
IC50 (human ACSS2): < 100 nM | IC50 [1]: < 100 nM

O=C(Nc1ccc2nc(-c3ccccc3)c(-c3ccccc3)cc2c1)NC1CCCCC1 [Example 131, 1-cyclohexyl-3-(2,3-diphenylquinolin-6-yl)urea]
IC50 (human ACSS2): ≤ 1000 nM | IC50 [1]: ≤ 1000 nM

CCC(O)CNC(=O)Nc1ccc2nc(-c3ccccc3OCC(C)C)c(-c3ccccc3)cc2c1 (stereo not shown) [Example 59, 1-(2-hydroxybutyl)-3-(2-(2-isobutoxyphe-nyl)-3-phenylquinolin-6-yl)urea]
IC50 (human ACSS2): < 100 nM | IC50 [1]: < 100 nM

CC[C@@H](O)CNC(=O)Nc1ccc2nc(-c3ccccc3F)c(-c3ccccc3F)cc2c1 [Example 20, (R)-1-(2,3-Bis(2-fluorophenyl)quinolin-6-yl)-3-(2-hydroxybutyl)urea]
IC50 (human ACSS2): < 100 nM | IC50 [1]: < 100 nM

CC[C@@H](O)CNC(=O)Nc1ccc2nc(C)c(-c3ccccc3C)cc2c1 [Example 83, (R)-1-(2-hydroxybutyl)-3-(2-methyl-3-(o-tolyl)quinolin-6-yl)urea]
IC50 (human ACSS2): < 100 nM | IC50 [1]: < 100 nM

C#CCNC(=O)Nc1ccc2nc(-c3ccccc3)c(-c3ccccc3)cc2c1 [Example 135, 1-(2,3-diphenylquinolin-6-yl)-3-(prop-2-yn-1-yl)urea]
IC50 (human ACSS2): ≤ 1000 nM | IC50 [1]: ≤ 1000 nM

CC[C@@H](O)CNC(=O)Nc1ccc2nc(-c3ccccc3)c(-c3ccccc3)cc2c1 [Example 2, (R)-1-(2,3-diphenylquinolin-6-yl)-3-(2-hydroxybutyl) urea]
IC50 (human ACSS2): < 100 nM | IC50 [1]: < 100 nM

CN1CCN(C(=O)Nc2ccc3nc(-c4ccccc4)c(-c4ccccc4)cc3c2)CC1 [Example 132, N-(2,3-diphenylquinolin-6-yl)-4-methylpiperazine-1-carboxamide]
IC50 (human ACSS2): ≤ 10000 nM | IC50 [1]: > 10000 nM

O=C(Nc1ccncc1)Nc1ccc2nc(-c3ccccc3)c(-c3ccccc3)cc2c1 [Example 142, 1-(2,3-diphenylquinolin-6-yl)-3-(pyridin-4-yl)urea]
IC50 (human ACSS2): > 10000 nM | IC50 [1]: > 10000 nM

CCC(CNC(=O)Nc1ccc2nc(C)c(-c3ccccc3)cc2c1)NC(C)=O (stereo not shown) [Example 99, N-(1-(3-(2-methyl-3-phenylquinolin-6-yl)ureido)butan-2-yl)acetamide]
IC50 (human ACSS2): ≤ 1000 nM | IC50 [1]: ≤ 1000 nM

CCC(O)CNC(=O)Nc1ccc2nc(-c3ccccc3)c(-c3ccccc3)c(C(=O)N(C)C)c2c1 (stereo not shown) [Example 63, 6-(3-(2-hydroxybutyl)ureido)-N,N-dimethyl-2,3-diphenylquino-line-4-carboxamide]
IC50 (human ACSS2): < 100 nM | IC50 [1]: < 100 nM

CCC(O)CNC(=O)Nc1ccc2nc(-c3ccccc3)c(-c3ccccc3)c(C#N)c2c1 (stereo not shown) [Example 70, 1-(4-cyano-2,3-diphenylquino-lin-6-yl)-3-(2-hydroxybutyl) urea]
IC50 (human ACSS2): < 100 nM | IC50 [1]: < 100 nM

CCC(O)CNC(=O)Nc1ccc2nc(-c3cccc(F)c3)c(-c3ccccc3F)cc2c1 (stereo not shown) [Example 46, 1-(3-(2-fluorophenyl)-2-(3-fluorophenyl)quinolin-6-yl)-3-(2-hydroxybutyl) urea]
IC50 (human ACSS2): < 100 nM | IC50 [1]: < 100 nM

CCC(O)CNC(=O)Nc1ccc2nc(CCc3ccccc3)c(-c3ccccc3)cc2c1 (stereo not shown) [Example 56, 1-(2-hydroxybutyl)-3-(2-phenethyl-3-phenylquinolin-6-yl)urea]
IC50 (human ACSS2): ≤ 10000 nM | IC50 [1]: ≤ 10000 nM

CCC(O)CNC(=O)Nc1ccc2nc(-c3ccccc3)c(-c3ccccc3)c(C(=O)O)c2c1 (stereo not shown) [Example 65, 6-(3-(2-hydroxybutyl)ureido)-2,3-diphenylquino-line-4-carboxylic acid]
IC50 (human ACSS2): < 100 nM | IC50 [1]: ≤ 10000 nM

CC[C@@H](O)CNC(=O)Nc1ccc2nc(C)c(-c3ccccc3)c(C)c2c1 [Example 113, (R)-1-(2,4-dimethyl-3-phenylquinolin-6-yl)-3-(2-hydroxybutyl) urea]
IC50 (human ACSS2): < 100 nM | IC50 [1]: < 100 nM

CCCCNC(=O)Nc1ccc2nc(-c3ccccc3)c(-c3ccccc3OC)cc2c1 [Example 23, 1-butyl-3-(3-(2-methoxyphenyl)-2-phenylquinolin-6-yl)urea]
IC50 (human ACSS2): < 100 nM | IC50 [1]: < 100 nM

CCC(O)CNC(=O)Nc1cnc2nc(-c3ccccc3)c(-c3ccccc3)cc2c1 (stereo not shown) [Example 145, 1-(6,7-Diphenyl-1,8-naphthyridin-3-yl)-3-(2-hydroxybutyl)urea]
IC50 (human ACSS2): ≤ 1000 nM | IC50 [1]: ≤ 1000 nM

CCC(F)(F)CNC(=O)Nc1ccc2nc(-c3ccccc3)c(-c3ccccc3)c(C(N)=O)c2c1 [Example 106, 6-(3-(2,2-difluorobutyl)ureido)-2,3-diphenylquino-line-4-carboxamide]
IC50 (human ACSS2): < 100 nM | IC50 [1]: < 100 nM

CCC(O)CNC(=O)Nc1ccc2nc(-c3ccccc3N)c(-c3ccccc3F)cc2c1 (stereo not shown) [Example 54, 1-(2-(2-aminophenyl)-3-(2-fluorophenyl)quinolin-6-yl)-3-(2-hydroxybutyl) urea]
IC50 (human ACSS2): < 100 nM | IC50 [1]: < 100 nM

CCC(O)CNC(=O)Nc1ccc2nc(-c3cnn(C)c3)c(-c3ccccc3)cc2c1 (stereo not shown) [Example 43, 1-(2-hydroxybutyl)-3-(2-(1-methyl-1H-pyrazol-4-yl)-3-phenylquinolin-6-yl)urea]
IC50 (human ACSS2): < 100 nM | IC50 [1]: ≤ 1000 nM

CCC(O)CNC(=O)Nc1ccc2nc(C)c(-c3ccccc3)cc2c1 (stereo not shown) [Example 52, 1-(2-hydroxybutyl)-3-(2-methyl-3-phenylquinolin-6-yl)urea]
IC50 (human ACSS2): < 100 nM | IC50 [1]: < 100 nM

CCC(O)CNC(=O)Nc1ccc2nc(-c3cccnc3)c(-c3ccccc3)cc2c1 (stereo not shown) [Example 41, 1-(2-hydroxybutyl)-3-(3-phenyl-2-(pyridin-3-yl)quinolin-6-yl)urea]
IC50 (human ACSS2): < 100 nM | IC50 [1]: < 100 nM

CCC(O)CNC(=O)Nc1ccc2nc(-c3ccccc3F)c(-c3ccccc3)cc2c1 (stereo not shown) [Example 8, 1-(2-(2-fluorophenyl)-3-phenylquinolin-6-yl)-3-(2-hydroxybutyl) urea]
IC50 (human ACSS2): < 100 nM | IC50 [1]: < 100 nM

CCC(O)CNC(=O)Nc1ccc2nc(-c3ccccc3F)c(-c3ccccc3F)cc2c1 (stereo not shown) [Example 4, 1-(2,3-bis(2-fluorophenyl)quinolin-6-yl)-3-(2-hydroxybutyl) urea]
IC50 (human ACSS2): < 100 nM | IC50 [1]: < 100 nM

CCC(O)CNC(=O)Nc1ccc2nc(-c3cccnc3)c(-c3cccnc3)cc2c1 (stereo not shown) [Example 19, 1-(2,3-di(pyridin-3-yl)quinolin-6-yl)-3-(2-hydroxybutyl) urea]
IC50 (human ACSS2): < 100 nM | IC50 [1]: ≤ 10000 nM

CCC(F)(F)CNC(=O)Nc1ccc2nc(-c3ccccc3)c(-c3ccccc3F)cc2c1 [Example 45, 1-(2,2-Difluorobutyl)-3-(3-(2-fluorophenyl)-2-phenylquinolin-6-yl)urea]
IC50 (human ACSS2): < 100 nM | IC50 [1]: < 100 nM

CCC(O)CNC(=O)Nc1ccc2nc(C)c(-c3ccccc3C)cc2c1 (stereo not shown) [Example 80, 1-(2-hydroxybutyl)-3-(2-methyl-3-(o-tolyl)quinolin-6-yl)urea]
IC50 (human ACSS2): < 100 nM | IC50 [1]: < 100 nM

CCC(O)CNC(=O)Nc1ccc2nc(C)cc(C(N)=O)c2c1 (stereo not shown) [Example 74, 6-(3-(2-hydroxybutyl)ureido)-2-methylquinoline-4-carboxamide]
IC50 (human ACSS2): ≤ 10000 nM | IC50 [1]: > 10000 nM

CCC(O)CNC(=O)Nc1ccc2nc(-c3cccnc3)c(-c3ccccc3F)cc2c1 (stereo not shown) [Example 31, 1-(3-(2-fluorophenyl)-2-(pyridin-3-yl)quinolin-6-yl)-3-(2-hydroxybutyl) urea]
IC50 (human ACSS2): < 100 nM | IC50 [1]: < 100 nM

— patent US20220298115A1, “SMALL MOLECULE INHIBITORS OF ACETYL COENZYME A SYNTHETASE SHORT CHAIN 2 (ACSS2)” (Curadev Pharma Pvt. Ltd., priority 2019, published 2022)
